The text below walks through data of US5925645A, “2-aryl-substituted pyridines” (Bayer Aktiengesellschaft, priority 1996, dated 1999).

Experiment [1] deals with T1, cholesterol ester transfer protein (CETP) (Homo sapiens, UniProt P11597).
T1 construct: CETP is obtained in partially purified form from human plasma by differential centrifugation and column chromatography; from tissue; host or cells: human plasma
T1 sequence (P11597 18-493): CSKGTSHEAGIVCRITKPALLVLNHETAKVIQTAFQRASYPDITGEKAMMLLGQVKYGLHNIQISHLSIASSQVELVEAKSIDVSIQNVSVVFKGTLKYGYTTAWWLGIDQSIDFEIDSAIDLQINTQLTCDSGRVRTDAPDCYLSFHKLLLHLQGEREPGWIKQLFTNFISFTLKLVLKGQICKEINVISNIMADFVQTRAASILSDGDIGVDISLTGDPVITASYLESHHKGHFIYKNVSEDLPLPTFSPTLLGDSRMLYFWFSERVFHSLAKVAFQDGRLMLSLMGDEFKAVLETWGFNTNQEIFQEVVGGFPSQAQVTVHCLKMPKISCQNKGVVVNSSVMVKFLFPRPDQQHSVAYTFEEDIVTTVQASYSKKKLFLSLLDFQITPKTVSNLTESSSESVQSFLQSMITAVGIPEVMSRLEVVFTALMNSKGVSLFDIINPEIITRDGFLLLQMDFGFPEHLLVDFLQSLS
Put plainly: CETP inhibition testing: transfer of 3H-cholesterol ester from human HD lipoproteins to biotinylated LD lipoproteins (SPA). The format is biochemical. The note with it: 3H-CE transfer HDL to biotin-LDL, 37° C., 18 h. The procedure:
CETP is obtained in partially purified form from human plasma by differential centrifugation and column chromatography and used for the test. To this end, human plasma is adjusted to a density of 1.21 g per ml using NaBr and centrifuged at 4° C. for 18 h at 50,000 rpm. The bottom fraction (d>1.21 g/ml) is applied to a Sephadex®phenyl-sepharose 4B (Pharmacia) column, washed with 0.15M NaCl/0.001M trisHCl pH 7.4 and then eluted with dist. water. The CETP-active fractions are pooled, dialysed against 50 mM Na acetate pH 4.5 and applied to a CM-Sepharose® (Pharmacia) column. The column is then eluted using a linear gradient (0-1M NaCl). The pooled CETP fractions are dialysed against 10 mM trisHCl pH 7.4 and then further purified by chromatography on a Mono Q® column (Pharmacia).
50 ml of fresh human EDTA plasma is adjusted to a density of 1.12 using NaBr and centrifuged for 18 h at 50,000 rpm at 4° C. in a Ty 65 rotor. The upper phase is used to obtain cold LDL. The lower phase is dialysed against 3×4 l of PDB buffer (10 mM tris/HCl pH 7.4, […], 1 mM EDTA, 0.02% NaN3). 20 μl of ^3 H-cholesterol (Dupont NET-725; 1 μC/μl dissolved in ethanol) are then added per 10 ml of retentate volume and incubation is carried out at 37° C. under N2 for 72 h.
The mixture is then adjusted to the density 1.21 using NaBr and centrifuged at 20° C. at 50,000 rpm in the Ty 65 rotor for 18 h. The upper phase is recovered and the lipoprotein fractions are purified by gradient centrifugation. To this end, the isolated, labelled lipoprotein fraction is adjusted to a density of 1.26 using NaBr. Each 4 ml of this solution are covered with a layer of 4 ml of a solution of density 1.21 and 4.5 ml of a solution of density 1.063 (density solutions of PDB buffer and NaBr) in centrifuge tubes (SW 40 rotor) and then centrifuged in the SW 40 rotor for 24 h at 38,000 rpm and 20° C. The intermediate layer containing the labelled HDL lying between the densities 1.063 and 1.21 is dialyzed against 3×100 volumes of PDB buffer at 4° C.
The retentate contains radiolabelled ^3 H-CE-HDL which, adjusted to about 5×10^6 cpm per ml, is used for the test.
For testing the CETP activity, the transfer of ^3 H-cholesterol ester from human HD lipoproteins to biotinylated LD lipoproteins is measured.
The reaction is ended by addition of streptavidin-SPA® beads (Amersham) and the transferred radioactivity is determined directly in a liquid scintillation counter.
In the test mixture, 10 μl of HDL-^3 H-cholesterol ester (~50,000 cpm) are incubated at 37° C. for 18 h with 10 μl of biotin-LDL (Amersham) in 50 mM Hepes/0.15 m NaCl/0.% bovine serum albumin/0.05% NaN3 pH 7.4 with 10 μl of CETP (1 mg/ml) and 3 μl of solution of the substance to be tested (dissolved in 10% DMSO/1% RSA). 200 μl of the SPA-streptavidin bead solution (Amersham TRKQ 7005) are then added, the mixture is incubated further for 1 h with shaking and then measured in the scintillation counter. As controls, corresponding incubations with 10 μl of buffer, 10 μl of CETP at 4° C. and 10 μl of CETP at 37° C. are used. The activity transferred into the control mixtures with CETP at 37° C. is rated as 100% transfer. The substance concentration at which this transfer is reduced by half is indicated as the IC50 value.
In the following table, the IC50 values (mol/l) are indicated for CETP inhibitors: […]

Experiment [2] in a line: Oral activity in hamsters: HDL cholesterol and triglycerides. The format is in vivo, Syrian golden hamsters. The procedure:
(§1) Syrian golden hamsters from in-house breeding are anaesthetized after fasting for 24 hours (0.80 mg/kg of atropine, 0.80 mg/kg of Ketavet® s.c. 30' later 50 mg/kg of Nembutal i.p.). The jugular vein is then exposed and cannulated. The test substance is dissolved in a suitable solvent (as a rule Adalat placebo solution: 60 g of glycerol, 100 ml of H2 O, PEG-400 to 1000 ml) and administered to the animals via a PE catheter inserted into the jugular vein. The control animals receive the same volume of solvent without test substance. The vein is then tied off and the wound is closed. After various times--up to 24 hours after administration of the test substance--blood (about 250 μl) is removed from the animals by puncture of the retro-orbital venous plexus. Clotting is concluded by incubation at 4° C. overnight, then centrifugation is carried out at 6000 g for 10 minutes. In the serum thus obtained, the content of cholesterol and triglycerides is determined with the aid of modified commercially available enzyme tests (cholesterol enzymatic 14366 Merck, triglycerides 14364 Merck). Serum is suitably diluted using physiological saline solution.
100 μl of serum dilution are mixed with 100 μl of […] in 96-well plates and incubated at room temperature for 10 minutes. The optical density is then determined at a wavelength of 492 nm using an automatic plate-reading apparatus (SLT Spectra). The triglyceride/cholesterol concentration contained in the samples is determined with the aid of a standard curve measured in parallel.
The determination of the content of HDL cholesterol is carried out after precipitation of the ApoB-containing lipoproteins by means of a reagent mixture (Sigma 352-4 HDL cholesterol reagent) according to the manufacturer's instructions.
In experiments to determine the oral activity, test substance dissolved in DMSO and suspended in 0.5% Tylose is administered orally by means of stomach tube to Syrian golden hamsters from in-house breeding. The control animals receive identical volumes of solvent without test substance. […]

Experiment [3] relates to CETP. Put plainly: Determination of the CETP activity ex vivo after intravenous administration. The experiment is classed as in vivo, Syrian golden hamsters. The note with it: 20 mg/kg intravenous. The procedure: as §1
Determination of the CETP activity
After intravenous administration of 20 mg/kg of the compound from Example 42, an about 50% reduction of the CETP activity measured ex vivo is found over a period of at least 2 hours. […]

A short description of experiment [4]: HDL cholesterol after intravenous administration to hamsters. The experiment is classed as in vivo, Syrian golden hamsters. The note with it: 20 mg/kg intravenous; 24 hours after substance administration. How it is done:
as §1, with “Clotting is concluded by incubation at 4° C. overnight, then centrifugation is carried out at 6000 g for 10 minutes.” left out, “Serum is suitably diluted using physiological saline solution.” left out
100 μl of serum dilution are mixed with 100 μl of […] in 96-well plates and incubated at room temperature for 10 minutes. The optical density is then determined at a wavelength of 492 nm using an automatic plate-reading apparatus (SLT Spectra). The triglyceride/cholesterol concentration contained in the samples is determined with the aid of a standard curve measured in parallel. […]

Where [5] appears, read: 2×45 mg/kg per os, 24 hours after the first administration.

In turn, `CC(C)c1nc(-c2ccc(F)cc2)c(CO)c(-c2cccc(Cl)c2)c1Cc1ccc(C(F)(F)F)cc1` [Example 63] had an IC50 in experiment [1] of 1000 nM. Still for that read-out and setting: to `CC(C)c1nc(-c2ccc(F)cc2)c(CO)c(-c2ccc(F)cc2)c1C=Cc1cccc(C(F)(F)F)c1` [Example 83, 2,4-di-(4-Fluorophenyl)-6-isopropyl-5-[2-(3-trifluoromethylphenyl)vinyl]-3-hydroxymethyl-pyridine] belongs 5000 nM. Regarding `OCc1c(-c2ccc(F)cc2)nc(C2CCCC2)c(C(F)c2ccc(C(F)(F)F)cc2)c1-c1ccc(F)cc1` (stereo not drawn) [Example 42], in experiment [1], the IC50 was in the range of 90 to 170 nM. Further, in experiment [2] (100 mg/kg per os, 24 hours after administration), the “increase of HDL cholesterol levels” value is listed as 30%. The “period over which the about 50% reduction of CETP activity is found” value in experiment [3] (ex vivo) was “at least 2 hours”. Moreover, in experiment [3] (over a period of at least 2 hours), the “reduction of the CETP activity measured ex vivo” value was “about 50%”. Besides, in experiment [4], the “increase of HDL cholesterol values versus control group” value was “about 30%”. The compound `OCc1c(-c2ccc(Cl)cc2)nc(C2CCCC2)c(C(F)c2ccc(C(F)(F)F)cc2)c1-c1ccc(F)cc1` (stereo not drawn) [Example 37] returned an IC50 in experiment [1] of 300 nM. The same measure, in the same setting: the value for `CC(C)c1nc(-c2ccc(F)cc2)c(C(C)O)c(-c2ccc(F)cc2)c1C(F)c1ccc(C(F)(F)F)cc1` (stereo not drawn) [Example 3, 4,6-Bis-(p-fluorophenyl)-2-isopropyl-3-[(p-trifluoromethylphenyl)-(fluoro)methyl]5-(1-hydroxyethyl)pyridine] was 800 nM; that for `OCc1c(-c2ccc(F)cc2)nc(C2CCCC2)c(C(F)c2ccc(OC(F)(F)F)cc2)c1-c1ccc(F)cc1` (stereo not drawn) [Example 45] was 300 nM. For `OCc1c(-c2ccc(F)cc2)nc(C2CCCC2)c(C(F)c2ccc(C(F)(F)F)cc2)c1-c1ccc(F)cc1` (single isomer, unassigned) [Example 44], in experiment [2] (setting [5]), the “increase of the level of HDL cholesterol versus control group” value came out at 20% and the “lowering of the level of the triglycerides versus control group” value is reported as 70%. With `O=C(c1ccc(C(F)(F)F)cc1)c1c(C2CCCC2)nc(-c2cccc(C(F)(F)F)c2)c(CO)c1-c1ccc(F)cc1` [Example 14], the IC50 in experiment [1] worked out at 70 nM. On the same count and under the same terms, to `CC(C)c1nc(-c2ccc(F)cc2)c(CO)c(-c2ccc(F)cc2)c1C(F)c1ccc(C(F)(F)F)cc1` (stereo not drawn) [Example 31, 2-,4-di-(4-Fluorophenyl)-6-isopropyl-5-[4-(trifluoromethylphenyl)-fluoromethyl]-3-hydroxymethyl-pyridine] belongs 500 nM; to `CC(O)c1c(-c2ccc(F)cc2)nc(C2CCCC2)c(C(=O)c2ccc(C(F)(F)F)cc2)c1-c1ccc(F)cc1` (stereo not drawn) [Example 26], 900 nM. Still for that read-out and setting: to `OCc1c(-c2ccc(F)cc2)nc(C2CCCCCC2)c(C(F)c2ccc(C(F)(F)F)cc2)c1-c1ccc(F)cc1` (stereo not drawn) [Example 53] belongs 170 nM; to `OCc1c(-c2ccc(F)cc2)nc(C2CCCCC2)c(C(F)c2ccc(C(F)(F)F)cc2)c1-c1ccc(F)cc1` (stereo not drawn) [Example 51], 400 nM; to `OCc1c(-c2ccc(F)cc2)nc(C2CCCC2)c(C(F)c2ccc3ccccc3c2)c1-c1ccc(F)cc1` (stereo not drawn) [Example 68], 80 nM.
